# Measurements from patent US8735439B2, “Chlorin e6-folic acid conjugate, preparation method thereof, and a pharmaceutical composition for the treatment of cancer comprising the same” (Diatech Korea Co., Ltd., priority 2009, dated 2014).
# Legend:
# [1] = in benzol, standard to estimate γ; cited from earlier work
# [2] = test system: Hela cells; assay: Accumulation in Hela cells; format: cell-based; details: for concentration in Hela cells: 2×10^−5 M/l, 37° C.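 On concentration in Hela cells: measured as suspension fluorescence intensity at excitation 405 nm and emission 665 nm.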
# Experimental: The cellular accumulation and the targeted delivery of the photoactive compounds were investigated using Hela cells, which is one of the numerous tumor cell types that overexpress folate receptors.
# Cells were cultivated for 3 days in medium 199, and transferred to Hank's solution/medium 199 (9/1). After 3 hours, the cell were collected by trypsin treatment from the substrate and placed in Hank's solution (10^5 ? /ml). To cell suspensions, chlorin e6 conjugates were added at a concentration of 2×10^−5 M/l, and incubated at 37° C. After 1, 5, 10, 15, and 24 hours, the samples were centrifuged, the pellet was washed with the cooled Hank's solution, and transferred to Hank's solution at a concentration being equal to that in the initial suspension.
# [3] = test system: HeLa cell culture; assay: Phototoxicity (photodynamic activity), 3.5 h incubation, 3.3 joule/cm^2; format: cell-based; design: number of HELA cells relative to the control: unit not given here; details: 3.5 hours incubation, photoexposure 3.3 joule/cm^2
# Experimental: To examine the photodynamic effects of a photosensitizer on a HeLa cell culture, the photosensitizer solution was added to the nutrient media at a final concentration of 0.1, 0.5, 1.0, 5.0 or 10 mcg/ml on day 3 after transplanting the cell culture into flasks. The flasks were wrapped with a light protecting cover, and incubated at 37° C. for 3.5 hours. Then, the cells were washed with Hank's solution, and exposed on ice by a laser medical device “LD 680-2000” (wavelength: 670-690 nm) at a dose of 3.3 joule/cm^2. After 20-24 hours, the available cell monolayer was dispersed using a 0.02%-Versene solution, and the number of tumor cells was calculated in Goriaev's chamber. For each point, 3 flasks were used.
# [4] = test system: Hela cells; assay: Competition assay with exogenous folic acid, uptake in Hela cells; format: cell-based; details: 4 μM/l folic acid, 24 hours
# Text: Then, the sample was centrifuged, the supernatant was taken, and the pellet was rewashed with cooled Hank's solution. The obtained pellet was again transferred into Hank's solution.
# [5] = test system: HeLa tumor cells; assay: Cytotoxicity (antiproliferative assay) in the absence of light exposure; format: cell-based; details: for number of HeLa cells: no light, 24 hours
# Experimental: Cytotoxicity was analyzed, considering the intensity of proliferative processes in cells, photosensitizer concentration, and dose of optical power. For each point, 3 flasks with cell monolayer were used.
# The monolayer culture of HeLa tumor cells was chosen and used as the cell.
# The culture of HeLa tumor cells was grown in nutrient medium 199 or in nutrient medium containing hemohydrolyzate supplemented with 10% fetal bovine serum and […] of kanamycin. […]
# Flasks with light-protective cover (dark cytotoxicity) were incubated at 37.5° C. for 1 hour. The cells were washed with Hank's solution 4 times. 2.0 ml of fresh nutrient medium were added, and the cells were irradiated at the temperature of melting ice for 5, 10, 15 or 20 mins by the light flux of a “METALAZ” laser medical device (wavelength: 627.8 nm, 578.2 or 510.6 nm) or “LD 680-2000” (wavelength: 670-690 nm), depending on the wavelength of maximum spectral absorption of the studied photosensitizer, at a dose of 40 J/cm^2. After 20-24 hours, the number of tumor cell was counted in Goriaev's chamber.
# [6] = test system: Hela cells; assay: Phototoxicity, 24 h incubation, 1.5-15 joule/cm^2; format: cell-based; details: 670-690 nm
# Experimental: In other experiment, the cells were incubated with photosensitizers at 37° C. for 24 hours, and irradiated by exposed on ice by a laser medical device “LD 680-2000” (wavelength of 670-690 nm) in a dose of 1.5-15 joule/cm^2.
# [7] = test system: transporter of restored vectors (TRV); details: cited from earlier work; for Km: read-out: KM (affinity of the carrier TRV)
smiles,measurement,setting,value
CCC1=C(CC)c2cc3[n-]c(cc4nc(cc5[n-]c(cc1n2)c(CC)c5CC)C(CC)=C4CC)c(CC)c3CC.[Pd+2] [Pd(II)-octa ethyl porphyrin],γ of the standard,[1],one
"C=Cc1c(C)c2cc3nc(c(CC(=O)O)c4[nH]c(cc5nc(cc1[nH]2)C(C)=C5CC)c(C)c4C(=O)O)C(CCC(=O)O)C3C (stereo not drawn) [chlorin e6, 13-carboxy-17-[2-carboxyethyl]-15-carboxymethyl-17,18-trans-dihydro-3-vinyl-8-ethyl-2,7,12,18-tetramethylporphyrin]",time in which the majority binds with cells,[2]; Hela cells,≤ 5 h
same,concentration in Hela cells,[2]; incubation 1 hour,0.86 relative units/10^4 cl.
same,concentration in Hela cells,[2]; incubation 5 hours,1.45 relative units/10^4 cl.
same,concentration in Hela cells,[2]; incubation 10 hours,1.72 relative units/10^4 cl.
same,concentration in Hela cells,[2]; incubation 15 hours,0.81 relative units/10^4 cl.
same,concentration in Hela cells,[2]; incubation 24 hours,0.40 relative units/10^4 cl.
same,number of HELA cells relative to the control,[3]; 0.1 mcg/ml,87.1
same,number of HELA cells relative to the control,[3]; 0.5 mcg/ml,83.6
same,number of HELA cells relative to the control,[3]; 1.0 mcg/ml,64.7
same,number of HELA cells relative to the control,[3]; 5.0 mcg/ml,19
same,number of HELA cells relative to the control,[3]; 10.0 mcg/ml,3.8
same,effect of free folic acid on uptake in Hela cells,[4],no significant effect
same,cytotoxicity in the absence of light exposure,"[5]; Hela cells, 24 hr incubation",no cytotoxicity
same,cell survival rate,"[5]; Hela cells, 24 hr incubation, absence of light exposure",about 90%
same,number of HeLa cells,[5]; photosensitizer conc. 1 (μm),101.3 percentage of the control
same,number of HeLa cells,[5]; photosensitizer conc. 2.5 (μm),99.1 percentage of the control
same,number of HeLa cells,[5]; photosensitizer conc. 5.0 (μm),98.4 percentage of the control
same,number of HeLa cells,[5]; photosensitizer conc. 10.0 (μm),95.5 percentage of the control
same,number of HeLa cells,[5]; photosensitizer conc. 20.0 (μm),90.0 percentage of the control
same,number of HeLa cells,[5]; photosensitizer conc. 30.0 (μm),89.7 percentage of the control
same,phototoxicity in survival test,[6],little phototoxicity
"Nc1nc(O)c2nc(CNc3ccc(C(=O)N[C@@H](CCC(=O)O)C(=O)O)cc3)cnc2n1 [folic acid, N-[4(2-Amino-4-hydroxypteridin-6-ylmethylamino)benzoyl]-L(+)-glutamic acid]",affinity of TRV-mediated transport,[7],about 200 μM
same,Km,[7]; tumor cells,100 to 200 µM
CN(Cc1cnc2nc(N)nc(N)c2n1)c1ccc(C(=O)N[C@@H](CCC(=O)O)C(=O)O)cc1 [methotrexate],maximum rate of TRV transport,[7]; tumor cells,1-12 nmol/min per cellular protein (g)
same,Km,[7]; tumor cells,4 to 8 µM
